Bridge positions count the residues as written; N and C are the ends. Square brackets hold non-standard residues; d marks the D form. Peptide text beside a SMILES is read from it. R8 = C=CCCCCCC[C@@](C)(N)C(=O)O; S5 = C=CCCC[C@](C)(N)C(=O)O

The subject of series [1] is rHRSV-mCherry in HEp-2 cells. The series can be described thus: rHRSV-mCherry inhibition assay. The note with it: Table 3 (Ala scan); HEp-2 cells, rHRSV-mCherry MOI 0.2, 2-fold serial dilutions (11 dilutions), duplicate; ± SD of fit. The format is cell-based, human respiratory syncytial virus. The protocol:
To measure the inhibitory activity of the peptide, the mCherry red fluorescence was quantified 48 h postinfection (p.i.).
Viral replication was quantified by measuring the mCherry fluorescence at 48 h p.i. and normalized based on the fluorescence of infected and untreated cells. (B) Cytotoxicity assay. HEp-2 cells were incubated in the presence of serial dilutions of peptides, and cell survival was quantified using the CellTiter-Glo Luminescent cell viability assay 24 h after the addition of the peptides. The signal was normalized based on the luminescence obtained for untreated cells. Error bars are standard deviations from duplicates.
HEp-2 cells were seeded at 5 × 10^4 cells per well in a 96-well plate the day before the infection. Peptides were 2-fold serially diluted in dimethyl sulfoxide (DMSO) (11 dilutions) and then further diluted in EMEM without phenol red and preincubated for 15 to 20 min with rHRSV-mCherry ([24]) at a final dilution with an MOI of 0.2 ([24]). The cells were incubated with the virus-peptide mixtures for a period of 1.5 to 2 h. The medium was then replaced by EMEM without phenol red containing 2% fetal bovine serum and the same concentration of peptide as the one that was used during the infection step. Plates were incubated 48 h at 37°C, and the mCherry fluorescence was measured using a spectrofluorometer (Tecan infinite M200PRO) with excitation and emission wavelengths of 580 and 620 nm, respectively. Relative fluorescence was normalized by the fluorescence of nontreated infected cells. Noninfected HEp-2 cells were used as standards for fluorescence background levels. Each experiment was performed in duplicate and repeated at least twice. The resulting inhibition curves were fitted in Igor Pro as described above.

In series [2] the test system is 5HB, a recombinant protein containing 3 HR1 domains covalently attached to 2 HR2 domains. The following applies: for competition with binding of fluorescently labeled T108 to recombinant 5HB (in words): Ala-scan variants, FP; for Kd: competition with fluorescently labeled T108 probe (2 nM), 5HB 50 nM, 10 min preincubation + 30 min room temperature, duplicates. The source says:
The RSV HR2 region (residues 476 to 524) is a 49-amino-acid sequence that has been extensively characterized (Fig. 1). HR2 is a largely unstructured peptide in aqueous solution folding into an α-helix upon binding to trimeric HR1 coiled coils ([20]). […] We reduced HR2 (aa 483 to 516) into three short overlapping subdomains (subdomains 1 to 3) (Fig. 1). These peptides were scanned for various stapling combinations. […] Far-UV circular dichroism (CD) spectropolarimetry was used to investigate the effect of stapling on the α-helical content of the peptides. […] To assess the propensity of the stapled peptides to hinder the formation of the postfusion six-helix bundle required for viral cell entry, we used a 5-helix bundle (5HB) biochemical fluorescence polarization (FP) competition assay as previously described ([21], [22]).
The coding sequence of 5HB was designed as described previously and de novo synthesized by Genscript ([21]). The HR1 (aa 126 to 182) and HR2 (aa 476 to 524) coding sequences from wild-type RSV A2 strain F ([36]) were codon optimized for overexpression in Escherichia coli and cloned at NdeI/BamHI restriction sites of pET-15b to generate the expression plasmid for 5HB. The 5HB expression construct was transformed into Escherichia coli BL21(DE3). Cells were grown at 37°C to an optical density at 600 nm of 0.8 followed by induction with isopropyl-1-thio-β-D-galactopyranoside at a final concentration of 0.5 mM for 12 to 15 h. Cells were harvested by centrifugation, washed twice with PBS, and resuspended in 20 ml of PBS (pH 7.4), 500 mM NaCl, and 1% Triton X-100 supplemented with complete protease inhibitor. Cell suspensions were disrupted by sonication. Cell debris was removed through ultracentrifugation at 18,000 × g for 1 h at 4°C, and clarified cell lysate was mixed with 1 ml of nickel-nitrilotriacetic acid (Ni-NTA) agarose beads (Qiagen) preequilibrated with 20 ml of lysis buffer. The suspension was agitated for 1 h at 4°C and loaded onto a 5-ml polypropylene column (Qiagen). The column was washed twice with 8 ml of PBS (pH 7.4), 500 mM NaCl, 1% Triton X-100, and 100 mM imidazole. Proteins were eluted with 5 × 500 μl of a buffer containing PBS (pH 7.4), 300 mM imidazole, and 500 mM NaCl. The imidazole was removed by dialysis, and protein purity was assessed by SDS-polyacrylamide gel electrophoresis followed by Coomassie blue staining. Protein concentration was determined with the Qubit 2.0 Fluorometer (Life Technologies).
The T108 ([12]) peptide probe was synthesized by standard SPPS procedures using HCTU as a coupling reagent as described above. A 10-μl volume of recombinant 5HB protein in FP buffer (20 mM PBS [pH 7.4], 500 mM NaCl, 0.01% [vol/vol] Tween 20, and 0.05 mg/ml bovine gamma globulin) was preincubated for 10 min at room temperature with 10 μl of the appropriate concentration of the inhibitor, after which 10 μl of fluorescein isothiocyanate (FITC)-T106 was added and further incubated for 30 min at room temperature. The final concentrations of protein and probe were 50 nM and 2 nM, respectively. The fluorescence polarization assay was performed in 384-well plates using a Spectramax Paradigm (Molecular Devices), using excitation and emission wavelengths of 485 nm and 535 nm, respectively. The acquisition time was 700 ms, and the read height was 1 mm. All experiments were performed in duplicate. […] In order to ensure robust fitting for some fits, r0 was kept constant at the value measured for the free tracer in buffer.

The nature of series [3]: circular dichroism. The following applies: 10 mM phosphate; pH 7.5; 25 °C; 50 uM. On the technique in general: CD spectra are sensitive to the conformation of chiral molecules.

On to `CC[C@H](C)[C@H](NC(=O)[C@H](CCCCN)NC(=O)[C@H](CCC(=O)O)NC(C)=O)C(=O)N[C@@]1(C)CCCC=CCCC[C@@](C)(C(=O)N[C@@H](Cc2ccccc2)C(=O)N[C@@H](C)C(=O)N[C@@]2(C)CCCC=CCCC[C@@](C)(C(=O)N[C@@H](CC(C)C)C(=O)N[C@@H](CC(C)C)C(=O)N[C@@H](Cc3c[nH]cn3)C(=O)N[C@@H](CC(N)=O)C(=O)N[C@H](C(N)=O)C(C)C)NC(=O)[C@H](CC(=O)O)NC(=O)[C@H](CO)NC(=O)[C@H](CCCCN)NC2=O)NC(=O)[C@H](CC(C)C)NC(=O)[C@H](CO)NC(=O)[C@H](CCC(N)=O)NC1=O` [Peptide I506A] (Ac-EKI[S5]QSL[S5]FA[S5]KSD[S5]LLHNV-NH2; staple 4-8, 11-15), for which a half-maximal response in series [1] (EC50) required 10.4 ± 2.97 µM. For the same molecule, in series [2], the “competition with binding of fluorescently labeled T108 to recombinant 5HB (in words)” value is on record as “none of these variants were able to compete”. In series [3], this molecule displayed a helicity of 22%.
In series [1], `CC[C@H](C)[C@@H]1NC(=O)[C@H](Cc2ccccc2)NC(=O)[C@@](C)(NC(=O)[C@H](CC(C)C)NC(=O)[C@H](CO)NC(=O)[C@H](CCC(N)=O)NC(=O)[C@H](CC(N)=O)NC(=O)[C@@H](NC(=O)[C@H](CCCCN)NC(=O)[C@H](CCC(=O)O)NC(C)=O)[C@@H](C)CC)CCCC=CCCC[C@@](C)(C(=O)N[C@@H](CO)C(=O)N[C@@H](CC(=O)O)C(=O)N[C@@]2(C)CCCC=CCCC[C@@](C)(C(=O)N[C@H](C(N)=O)C(C)C)NC(=O)[C@H](Cc3c[nH]cn3)NC(=O)[C@H](CC(C)C)NC(=O)[C@H](CC(C)C)NC2=O)NC(=O)[C@H](C)NC1=O` [Peptide R507A] (Ac-EKINQSL[S5]FIA[S5]SD[S5]LLH[S5]V-NH2; staple 8-12, 15-19) showed a concentration giving a half-maximal response (EC50) of 175 µM. Moreover, the “competition with binding of fluorescently labeled T108 to recombinant 5HB (in words)” value in series [2] is given as “none of these variants were able to compete”. Further, the helicity in series [3] was 45%.
The matching figures for `CC[C@H](C)[C@H](NC(=O)[C@H](Cc1ccccc1)NC(=O)[C@]1(C)CCCC=CCCC[C@](C)(NC(=O)[C@@H](NC(=O)[C@H](CCCCN)NC(=O)[C@H](CCC(=O)O)NC(C)=O)[C@@H](C)CC)C(=O)N[C@@H](CCC(N)=O)C(=O)N[C@@H](CO)C(=O)N[C@@H](CC(C)C)C(=O)N1)C(=O)N[C@@]1(C)CCCC=CCCC[C@@](C)(C(=O)N[C@@H](CC(C)C)C(=O)N[C@@H](CC(C)C)C(=O)N[C@@H](Cc2c[nH]cn2)C(=O)N[C@@H](CC(N)=O)C(=O)N[C@H](C(N)=O)C(C)C)NC(=O)[C@H](CC(=O)O)NC(=O)[C@H](CO)NC(=O)[C@H](C)NC1=O` [Peptide K508A] (Ac-EKI[S5]QSL[S5]FI[S5]ASD[S5]LLHNV-NH2; staple 4-8, 11-15): 10.9 ± 13.9 µM, “none of these variants were able to compete” and 76%.
The matching figures for `CC[C@H](C)[C@H](NC(=O)[C@H](Cc1ccccc1)NC(=O)[C@]1(C)CCCC=CCCC[C@](C)(NC(=O)[C@@H](NC(=O)[C@H](CCCCN)NC(=O)[C@H](CCC(=O)O)NC(C)=O)[C@@H](C)CC)C(=O)N[C@@H](CCC(N)=O)C(=O)N[C@@H](CO)C(=O)N[C@@H](CC(C)C)C(=O)N1)C(=O)N[C@@]1(C)CCCC=CCCC[C@@](C)(C(=O)N[C@@H](CC(C)C)C(=O)N[C@@H](CC(C)C)C(=O)N[C@@H](Cc2c[nH]cn2)C(=O)N[C@@H](CC(N)=O)C(=O)N[C@H](C(N)=O)C(C)C)NC(=O)[C@H](CC(=O)O)NC(=O)[C@H](C)NC(=O)[C@H](CCCCN)NC1=O` [Peptide S509A] (Ac-EKI[S5]QSL[S5]FI[S5]KAD[S5]LLHNV-NH2; staple 4-8, 11-15): 82 ± 1.56 µM, “none of these variants were able to compete” and 62%.
Take `CC[C@H](C)[C@H](NC(=O)[C@H](Cc1ccccc1)NC(=O)[C@H](C)NC(=O)[C@H](CC(C)C)NC(=O)[C@H](CO)NC(=O)[C@H](CCC(N)=O)NC(=O)[C@H](CCC(=O)O)NC(C)=O)C(=O)N[C@@H](CCCNC(=N)N)C(=O)N[C@@H](CCCCN)C(=O)N[C@@H](CO)C(=O)N[C@@H](CC(=O)O)C(=O)N[C@@H](CCC(=O)O)C(=O)N[C@@H](CC(C)C)C(=O)N[C@@H](CC(C)C)C(=O)N[C@@H](Cc1c[nH]cn1)C(=O)N[C@@H](CC(N)=O)C(=O)N[C@H](C(N)=O)C(C)C` [Peptide 3] (Ac-EQSLAFIRKSDELLHNV-NH2): the Kd in series [2] was more than 10.8 µM. The helicity in series [3] came out at 5.9%.
For `CC[C@H](C)[C@H](NC(=O)[C@H](Cc1ccccc1)NC(=O)[C@]1(C)CCCC=CCCCCCC[C@@](C)(NC(=O)[C@H](CC(N)=O)NC(=O)[C@@H](NC(=O)[C@H](CCC(N)=O)NC(=O)[C@H](CO)NC(=O)[C@@H](NC(=O)[C@H](CCC(=O)O)NC(C)=O)[C@@H](C)CC)C(C)C)C(=O)N[C@@H](CCCCN)C(=O)N[C@@H]([C@@H](C)CC)C(=O)N[C@@H](CC(N)=O)C(=O)N[C@@H](CCC(N)=O)C(=O)N[C@@H](CO)C(=O)N[C@@H](CC(C)C)C(=O)N1)C(=O)N[C@@H](CCCNC(=N)N)C(N)=O` [Peptide 2e] (Ac-EISQVN[R8]KINQSL[S5]FIR-NH2; staple 7-14), the dissociation constant Kd in series [2] was found to be 76 ± 4 µM. Also, in series [3], the helicity amounted to 27.4%.
The matching figures for `CC[C@H](C)[C@H](NC(=O)[C@H](Cc1ccccc1)NC(=O)[C@H](C)NC(=O)[C@H](CC(C)C)NC(=O)[C@H](CO)NC(=O)[C@H](CCC(N)=O)NC(=O)[C@H](CCC(=O)O)NC(C)=O)C(=O)N[C@@H](CCCNC(=N)N)C(=O)N[C@@H](CCCCN)C(=O)N[C@@H](CO)C(=O)N[C@@H](CC(=O)O)C(=O)N[C@@]1(C)CCCC=CCCC[C@@](C)(C(=O)N[C@H](C(N)=O)C(C)C)NC(=O)[C@H](Cc2c[nH]cn2)NC(=O)[C@H](CC(C)C)NC(=O)[C@H](CC(C)C)NC1=O` [Peptide 3c] (Ac-EQSLAFIRKSD[S5]LLH[S5]V-NH2; staple 12-16): more than 216 µM and 18.7%.

As a reminder, the EC50 is the concentration that produces a half-maximal response. Low readings indicate a more potent agent, high ones a less potent agent. The Kd is a measure of binding affinity in units of concentration.
